# Assay results published in patent publication US20200354426A1 (MEDIMMUNE LIMITED, priority 2016, published 2020).
# “And” between values parts separate entries of the source, which are not always exact repeats. Identical values can stand only once. Numbered stars: 1 amine (or outer) side, 2 acyl side, 3 side chain; on linkers, the order of the positions; unused ones are H or OH. Side chains are listed from the residue outwards. Ends that are not written are not given here. Peptide text beside a SMILES is read from it. * marks the point of attachment. γGlu = O=C(O)[C@H](CCC(=O)[*:2])N[*:1]; Palmitoyl = CCCCCCCCCCCCCCCC(=O)*
# How the values were obtained:
# Human GIPr = target: T1, Human GIPr (Homo sapiens, UniProt P48546); assay: cAMP activity assay in assay medium (assay 1); type: cell-based; conditions: assay medium; Table 4; read-out: hGIPR EC50
# T1 construct: expressed in transfected cells
# T1 sequence (P48546 22-466): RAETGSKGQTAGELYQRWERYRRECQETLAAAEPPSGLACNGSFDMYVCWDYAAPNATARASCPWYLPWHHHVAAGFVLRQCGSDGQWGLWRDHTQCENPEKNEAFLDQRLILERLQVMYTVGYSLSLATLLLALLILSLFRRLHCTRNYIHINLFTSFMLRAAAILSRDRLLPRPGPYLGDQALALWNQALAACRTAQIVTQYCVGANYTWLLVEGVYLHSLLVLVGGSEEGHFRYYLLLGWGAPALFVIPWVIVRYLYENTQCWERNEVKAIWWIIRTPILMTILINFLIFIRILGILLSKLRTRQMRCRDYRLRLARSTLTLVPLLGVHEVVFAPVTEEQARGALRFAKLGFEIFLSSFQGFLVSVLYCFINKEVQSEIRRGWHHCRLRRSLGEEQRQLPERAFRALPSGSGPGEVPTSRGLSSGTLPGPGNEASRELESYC
# From the text: (§1) Biological Activity of Peptides in Cell-Based cAMP Activity Assay (Assay 1):
# (§2) All sample dilutions were made in duplicate.
# Human GlucR = target: T2, Human GlucR (Homo sapiens, UniProt P47871); assay: cAMP activity assay in assay medium (assay 1); type: cell-based; conditions: assay medium; Table 4; read-out: hGlucR EC50
# T2 construct: expressed in transfected cells
# From the text: as §1, §2
# Human GLP1R = Human GLP1R (Homo sapiens, UniProt P43220); assay: cAMP activity assay in assay medium (assay 1); type: cell-based; design: expressed in transfected cells; conditions: assay medium; Table 4; read-out: hGLP1R EC50
# From the text: as §1, §2
# [1] = rat plasma (frozen blank plasma, thawed); conditions: 37° C., up to 48 hours
# [2] = mouse plasma (frozen blank plasma, thawed); conditions: 37° C., up to 48 hours
# [3] = human plasma (frozen blank plasma, thawed); conditions: 37° C., up to 48 hours
# T2 sequence (P47871 26-477): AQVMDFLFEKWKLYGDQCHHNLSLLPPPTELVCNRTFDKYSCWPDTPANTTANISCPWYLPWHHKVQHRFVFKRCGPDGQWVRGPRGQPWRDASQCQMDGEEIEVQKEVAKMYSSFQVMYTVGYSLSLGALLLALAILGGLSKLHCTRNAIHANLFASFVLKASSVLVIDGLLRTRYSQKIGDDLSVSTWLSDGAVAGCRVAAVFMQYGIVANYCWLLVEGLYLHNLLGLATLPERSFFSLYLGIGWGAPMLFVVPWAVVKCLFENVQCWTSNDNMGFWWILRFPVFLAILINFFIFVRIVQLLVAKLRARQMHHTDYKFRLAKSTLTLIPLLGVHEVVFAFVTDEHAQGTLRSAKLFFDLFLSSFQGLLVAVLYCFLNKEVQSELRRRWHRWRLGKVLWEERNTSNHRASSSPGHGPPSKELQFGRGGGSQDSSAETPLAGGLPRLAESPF
# Sequence of Human GLP1R (P43220 24-463): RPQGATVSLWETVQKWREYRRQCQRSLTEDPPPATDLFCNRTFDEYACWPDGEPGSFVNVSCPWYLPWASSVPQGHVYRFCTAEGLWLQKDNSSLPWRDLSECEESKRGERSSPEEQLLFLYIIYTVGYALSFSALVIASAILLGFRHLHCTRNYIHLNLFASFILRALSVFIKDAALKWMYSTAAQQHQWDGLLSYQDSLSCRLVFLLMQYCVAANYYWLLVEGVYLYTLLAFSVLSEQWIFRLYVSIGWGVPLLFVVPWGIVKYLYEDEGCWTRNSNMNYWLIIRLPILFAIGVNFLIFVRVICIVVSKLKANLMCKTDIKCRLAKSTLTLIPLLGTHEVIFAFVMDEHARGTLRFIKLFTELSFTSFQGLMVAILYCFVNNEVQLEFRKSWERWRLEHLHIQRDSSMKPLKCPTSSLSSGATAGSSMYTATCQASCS
EC50 (Human GIPr) [nM],EC50 (Human GlucR) [nM],EC50 (Human GLP1R) [nM],fragment found [1],fragment found [2],not cleaved [3] [% stable peptide at 24 h],Compound
11.8,0.0341,0.0438,,,,CCCCCCCCCCCCCCCC(=O)N[C@@H](CCC(=O)NCCCC[C@H](NC(=O)[C@H](Cc1ccc(O)cc1)NC(=O)[C@H](CCC(=O)O)NC(=O)[C@H](CO)NC(=O)[C@H](Cc1ccc(O)cc1)NC(=O)[C@H](CC(=O)O)NC(=O)[C@H](CO)NC(=O)[C@@H](NC(=O)[C@H](Cc1ccccc1)NC(=O)[C@@H](NC(=O)CNC(=O)[C@H](CCC(N)=O)NC(=O)[C@H](CO)NC(=O)[C@@H](N)Cc1c[nH]cn1)[C@@H](C)O)[C@@H](C)O)C(=O)N[C@@H](CC(=O)O)C(=O)N[C@@H](CO)C(=O)N[C@@H](CCC(=O)O)C(=O)N[C@@H](CCCNC(=N)N)C(=O)N[C@@H](C)C(=O)N[C@@H](CCCNC(=N)N)C(=O)N[C@@H](CC(=O)O)C(=O)N[C@@H](Cc1ccccc1)C(=O)N[C@H](C(=O)N[C@@H](C)C(=O)N[C@@H](Cc1c[nH]c2ccccc12)C(=O)N[C@@H](CC(C)C)C(=O)N[C@H](C(=O)N[C@@H](C)C(=O)NCC(=O)NCC(N)=O)C(C)C)C(C)C)C(=O)O [g846] (H-HSQGTFTSDYSEYK([γGlu-Palmitoyl])DSERARDFVAWLVAGG-NH2; N-terminus assumed)
41.7,0.00704,0.0448,,,,CCCCCCCCCCCCCCCC(=O)N[C@@H](CCC(=O)NCCCC[C@H](NC(=O)[C@H](CO)NC(=O)[C@H](CC(=O)O)NC(=O)[C@H](CC(C)C)NC(=O)[C@H](Cc1ccc(O)cc1)NC(=O)[C@H](CCCCN)NC(=O)[C@H](CO)NC(=O)[C@H](Cc1ccc(O)cc1)NC(=O)[C@H](CC(=O)O)NC(=O)[C@H](CO)NC(=O)[C@@H](NC(=O)[C@H](Cc1ccccc1)NC(=O)[C@@H](NC(=O)CNC(=O)[C@H](CCC(N)=O)NC(=O)[C@H](CO)NC(=O)[C@@H](N)Cc1c[nH]cn1)[C@@H](C)O)[C@@H](C)O)C(=O)N[C@@H](CCCNC(=N)N)C(=O)N[C@@H](C)C(=O)N[C@@H](CCCNC(=N)N)C(=O)N[C@@H](CC(=O)O)C(=O)N[C@@H](Cc1ccccc1)C(=O)N[C@H](C(=O)N[C@@H](C)C(=O)N[C@@H](Cc1c[nH]c2ccccc12)C(=O)N[C@@H](CC(C)C)C(=O)N[C@H](C(=O)N[C@@H](C)C(=O)NCC(=O)NCC(N)=O)C(C)C)C(C)C)C(=O)O [g867] (H-HSQGTFTSDYSKYLDSK([γGlu-Palmitoyl])RARDFVAWLVAGG-NH2; N-terminus assumed)
79,0.0104,0.0863,,,,CCCCCCCCCCCCCCCC(=O)N[C@@H](CCC(=O)NCCCC[C@H](NC(=O)[C@H](Cc1ccc(O)cc1)NC(=O)[C@H](CCC(=O)O)NC(=O)[C@H](CO)NC(=O)[C@H](Cc1ccc(O)cc1)NC(=O)[C@H](CC(=O)O)NC(=O)[C@H](CO)NC(=O)[C@@H](NC(=O)[C@H](Cc1ccccc1)NC(=O)[C@@H](NC(=O)CNC(=O)[C@H](CCC(N)=O)NC(=O)[C@H](CO)NC(=O)[C@@H](N)Cc1c[nH]cn1)[C@@H](C)O)[C@@H](C)O)C(=O)N[C@@H](CC(=O)O)C(=O)N[C@@H](CO)C(=O)N[C@@H](CCCNC(=N)N)C(=O)N[C@@H](CCCNC(=N)N)C(=O)N[C@@H](C)C(=O)N[C@@H](CCCNC(=N)N)C(=O)N[C@@H](CC(=O)O)C(=O)N[C@@H](Cc1ccccc1)C(=O)N[C@H](C(=O)N[C@@H](CCC(=O)O)C(=O)N[C@@H](Cc1c[nH]c2ccccc12)C(=O)N[C@@H](CC(C)C)C(=O)N[C@@H](CCC(=O)O)C(=O)N[C@@H](C)C(=O)NCC(=O)NCC(N)=O)C(C)C)C(=O)O [g876] (H-HSQGTFTSDYSEYK([γGlu-Palmitoyl])DSRRARDFVEWLEAGG-NH2; N-terminus assumed)
,,,"DPP cleaved product, minor","DPP cleaved product, minor",,HSQGTFTSDXSEYLDSERARDFVAWLEAGG-amide ×10 = K(gE-palm)
,,,DPP cleaved product,DPP cleaved product,100,HSQGTFTSDXSRYLDSRSARDFVAWLEAGG-amide ×10 = K(gE-palm)
102,0.0053,0.145,,,,HSQGTFTSDYSKYLDSERARDFVAWLEAGG-NH2 [g840]
6.41,0.0279,0.0272,,,,HSQGTFTSDYSKYLDSRRAQDFVQWLVRGGKNNRNNIAK-NH2 [g321]

Compound,EC50 (Human GIPr) [nM],EC50 (Human GlucR) [nM],EC50 (Human GLP1R) [nM],fragment found [1],fragment found [2],not cleaved [3] [% stable peptide at 24 h]
HSQGTFTSDYSKXLDSERARDFVAWLVAGG-amide ×13 = K(gE-palm),,,,DPP cleaved product,DPP cleaved product and +1 DPP cleaved product,100
